Experimental data as given in paper PMC11061419, “Identification of novel small molecule inhibitors of twin arginine translocation (Tat) pathway and their effect on the control of Campylobacter jejuni in chickens” (Frontiers in Microbiology, 2024).
Converted amounts (≈) assume the structure as drawn. “And” between values parts separate entries of the source, which are not always exact repeats. Identical values can stand only once.

Tests used:
[1] = system: C. jejuni (mixture of five strains) in chicken ceca; assay: C. jejuni persistence in ceca of 5-week-old colonized chickens; format: in vivo; conditions: for reduction in C. jejuni population per gram of cecum compared with the DMSO control group: 5-week-old chickens, oral twice a day for 5 days, approximately 0.225 mg of SM per kg body weight; for decrease of cecal C. jejuni colonization/load: 3 and 5-week-old chickens, 5-day treatment twice a day, 0.225 mg or 0.127 mg of SM per kg body weight
Method: Four SMs (T1, T2, T7, and T8) were selected from the initial list of eight SMs based on their low MBC in Caco2 cells (<5 μg SM/ml), low cytotoxicity indexes (<20% toxicity at 5 μg SM /ml), and their minimal effect on commensal bacterial species (less than two species inhibited by the SM out of the seven strains tested; Table 1). The antimicrobial efficacy of our SM was tested on 5-week-old chickens, to assess the clearance of C. jejuni load right before slaughter age. Overall, 5-week-old Campylobacter-free, i.e., specific pathogen-free [SPF] chickens were inoculated orally with a mixture of five C. jejuni strains (10^5 CFU/chicken, Supplementary Table S3). Rectal swabs were collected 1 day post-inoculation (DPI) to confirm C. jejuni colonization (CFU/g of feces) in birds. From 2 DPI to 7 DPI, groups of 4–5 chickens were treated orally twice a day with one of the four SMs (T1, T2, T7, or T8; approximately 0.225 mg of SM per kg body weight). Details of the treatment groups and the inoculum are shown in Supplementary Table S3.
For both experiments, C. jejuni colonized-chickens treated with 0.0001% DMSO and colonized chickens without additional carrier treatment (non-treated) were used as controls (n = 3–6 chicken per group). Details of the treatment groups and the inoculum are shown in Supplementary Table S3. Both 3 and 5-week-old chickens were euthanized at 7 DPI using carbon dioxide gas and ceca (cecal content and the pouch) and were aseptically collected. One of the ceca pairs was immediately stored at −80°C for microbiota studies. The other ceca were suspended in 1X PBS, homogenized, serially diluted, plated on MH media supplemented with Campylobacter Selective Supplement (CSS) agar plate, and incubated for 48 h at 42°C in microaerophilic conditions to determine C. jejuni load in the ceca (CFU/g of ceca).

[2] = system: Commensal/beneficial gut bacteria (n = 7); assay: Activity spectrum against commensal/beneficial gut bacteria at 6.25 μg/mL; format: cell-based; conditions: 6.25 μg/mL SM; for Commensal/beneficial gut bacteria inhibited at 6.25 μg/mL (species): Ef Enterococcus faecalis, Lb Levilactobacillus brevis, LGG Lacticaseibacillus rhamnosus GG
Method: A similar experiment was performed with seven commensal/beneficial gut bacteria to determine species specificity of these SMs. In brief, an overnight suspension was normalized at 0.05 OD600 using the appropriate medium and challenged with 6.25 μg/mL of SM. Details about the strains and their growing conditions are shown in Supplementary Table S1. Medium alone and 1% DMSO were used as controls (N = 3 replicates per SM).

C. jejuni 81–176 = assay: Copper sulfate sensitivity dose–response assay in vitro (MIC/MBC); format: cell-based, Campylobacter jejuni; conditions: for MBC / MIC: Campylobacter jejuni, 0.5 mM CuSO4, head displaced; for MBC: read-out: MBC, C. jejuni (Table S5); for MIC: read-out: MIC, C. jejuni (Table S4); for C. jejuni 81–176 in vitro MBC: minimal bactericidal concentration in presence of 0.5 mM CuSO4; for C. jejuni 81–176 in vitro MIC: minimal bacteriostatic concentration in presence of 0.5 mM CuSO4
Method: (§1) In total, 19 SMs were two-fold serially diluted to obtain a final SM concentration ranging from 6.25 to 0.012 μg/mL. C. jejuni 81–176 was then treated with a determined concentration of SM, as described in the copper sensitivity assay. […] The lowest bactericidal SM concentration was considered the MBC (no increase in OD600 over time and no viable cells were recovered on agar plate after challenge) (N = 3 replicates per SM). […] However, these SMs were two-fold serially diluted to obtain a final SM concentration ranging from 5 μg to 0.0625 μg for testing (N = two independent experiments with four technical replicate for each SM).

[3] = system: intracellular C. jejuni 81–176 in Caco-2 cells; assay: Copper sulfate sensitivity dose–response assay in infected Caco-2 colon epithelial cells; format: cell-based, Campylobacter jejuni; conditions: 0.5 mM CuSO4; for C. jejuni 81–176 MBC in Caco2 cells: infected Caco-2 cells, 24 h; for SM concentration that completely cleared intracellular C. jejuni 81–176 in Caco-2 cells (MBC in Caco2 cells): 24 h treatment
Method: The intracellular reduction in C. jejuni in the presence of a given SM (T1-T8) and 0.5 mM CuSO4 were evaluated using Caco-2 cells, as previously described ([Kumar et al., 2016]; [Deblais et al., 2019]). In brief, cells were infected for 2 h using a multiplicity of infection (MOI) of 100. Infected cells were treated with SM at a final concentration ranging between 5 and 0.315 μg/mL and incubated at 37°C for 24 h in a humidified 5% CO2 incubator. Following incubation, cells were washed once with 1X PBS, lysed with 0.1% Triton-100X, serially 10-fold diluted in 1X PBS, and plated on MH agar plate. Plates were incubated in microaerophilic conditions at 42°C for 24 h, to determine the intracellular survival. Cells not infected and not treated and cells infected and treated with 1% DMSO were used as controls (N = two independent experiments with four technical replicate for each SM).

C. jejuni Au-24 = assay: Copper sulfate sensitivity dose–response assay in vitro (MIC/MBC); format: cell-based; conditions: Campylobacter jejuni; for MIC: AU24, read-out: MIC, Au-24 (Table S4); for MBC: AU24, 0.5 mM CuSO4, read-out: MBC, Au-24 (Table S5)
Method: Campylobacter jejuni 81–176 was the primary model strain used for the selection of the potential Tat-dependent inhibitors by high-throughput screening. C. jejuni 81–176 is resistant to 0.5 and 1 mM CuSO4 (Supplementary Figure S1). C. jejuni 81–176 tatC knockout mutant (C. jejuni ΔtatC) was used to confirm the Tat-dependent inhibitory effect of the selected SM. C. jejuni ΔtatC is susceptible to 0.5 mM and higher of CuSO4 ([Rajashekara et al., 2009]). The specificity of the Tat-dependent inhibitors was also tested on 11 additional Campylobacter strains (C. coli ATCC33559 and 10 other C. jejuni strains isolated from chickens) and 7 commensal/beneficial bacteria (Supplementary Table S1). The […] (Au-13, Au-20, Au-38, Au-39, Au-47, Au-50, Au-24, Au-32, Au-44, and Au-45) were selected based on their single nucleotide polymorphism (SNP)-type and percent of prevalence in chickens ([Merchant-Patel et al., 2008]; [Kumar et al., 2016]). Additional details about the bacterial strains are shown in Supplementary Table S1.
as §1

[4] = system: Campylobacter spp. (12 strains); assay: Activity spectrum against Campylobacter strains at 6.25 μg/mL with 0.5 mM CuSO4; format: cell-based, Campylobacter jejuni, Campylobacter coli; conditions: 6.25 μg/mL SM
Caco-2 cells = assay: Cytotoxicity on Caco-2 colon epithelial cells (LDH assay); format: cell-based; conditions: for cytotoxicity index on Caco-2 cells: 5 μg SM /ml, 24 h; for toxicity level to Caco-2 cells: 25 μg/mL or 50 μg/mL of SM for 24 h
Method: Cytotoxicity of the eight SMs (T1-T8) was tested on Caco-2 cells at 5, 25, and 50 μg/mL, as previously described ([Kumar et al., 2016]; [Deblais et al., 2019]). In brief, a 96-well plate seeded with approximately 1.4 × 10^5 Caco-2 cells/well in MEM medium was challenged with a final SM concentration of 5, 25, and 50 μg/mL. After 24 h of incubation at 37°C in a humidified 5% CO2 incubator, cytotoxic effects were determined using the PierceTM Lactate Dehydrogenase Cytotoxicity Assay Kit (Thermo Fisher Scientific). Cell death was measured based on the production of formazan (chromogenic dye), which can be read at OD570. Equal concentrations (5, 25, and 50 μg/mL) of kanamycin or chloramphenicol, 1% DMSO, and 10X lysis buffer were used as control. The cytotoxicity level was calculated according to the manufacturer’s instructions (N = two independent experiments with three technical replicate for each SM).

SMILES | reduction in C. jejuni population per gram of cecum compared with the DMSO control group [1] | Growth inhibition at 6.25 μg/mL, Commensal/beneficial gut bacteria (strains inhibited/tested) [2] | MBC (C. jejuni 81–176) | MIC (C. jejuni 81–176) | C. jejuni 81–176 in vitro MBC (C. jejuni 81–176) | C. jejuni 81–176 in vitro MIC (C. jejuni 81–176) | C. jejuni 81–176 MBC in Caco2 cells [3] | MIC (C. jejuni Au-24) | MBC (C. jejuni Au-24) | Growth inhibition at 6.25 μg/mL, Campylobacter spp. (strains inhibited/tested) [4] | cytotoxicity index on Caco-2 cells (Caco-2 cells) | toxicity level to Caco-2 cells (Caco-2 cells) | decrease of cecal C. jejuni colonization/load [1] | Commensal/beneficial gut bacteria inhibited at 6.25 μg/mL (species) [2] | SM concentration that completely cleared intracellular C. jejuni 81–176 in Caco-2 cells (MBC in Caco2 cells) [3]
CCCNC(=S)Nc1cc(OC)cc(OC)c1 [T1] | did not reduce | 0/7 | 0.62 mg/L (≈ 2.44 µM) | 0.19 mg/L (≈ 0.747 µM) | 0.62 mg/L | 0.19 mg/L | 0.63 mg/L | 0.16 mg/L (≈ 0.629 µM) | 0.32 mg/L (≈ 1.26 µM) | 12/12 | < 20% | 36% |  |  | 
CC(C)(C)NC(=S)NNc1c(Cl)cncc1Cl [T2] | 1.2 log | 2/7 | 0.62 mg/L (≈ 2.11 µM) | 0.01 mg/L (≈ 0.0341 µM) | 0.62 mg/L | 0.01 mg/L | 1.25 mg/L | 0.31 mg/L (≈ 1.06 µM) | 0.62 mg/L (≈ 2.11 µM) | 12/12 | < 20% |  | up to 1.2 log | Lb and Ef | < 5 mg/L
CSc1ccccc1-c1nnc(NC(=O)Cc2ccccc2)o1 [T7] | 0.5 log | 1/7 | 0.16 mg/L (≈ 0.492 µM) | 0.02 mg/L (≈ 0.0615 µM) | 0.16 mg/L | 0.02 mg/L | 2.5 mg/L | 0.08 mg/L (≈ 0.246 µM) | 0.16 mg/L (≈ 0.492 µM) | 12/12 | < 20% |  | up to 1.2 log | LGG | < 5 mg/L
CCN(CC)/C(C)=N/C(=O)Nc1ccccc1 [T8] | 0.5 log | 2/7 | 0.12 mg/L (≈ 0.514 µM) | 0.08 mg/L (≈ 0.343 µM) | 0.12 mg/L | 0.08 mg/L | 5 mg/L | 0.06 mg/L (≈ 0.257 µM) | 0.06 mg/L (≈ 0.257 µM) | 12/12 | < 20% | 33% |  | Lb and Ef | < 5 mg/L and 5 mg/L
